Read-outs that look alike come from different tables or passages of the source.
Assays:
feedlot cattle = test: Summary of seven feedlot experiments with Biolite in med and n-med finishing diets (rumen pH, liver abscesses, performance); type: in vivo; details: sample collected by Geishauser Probe prior to the morning feeding; B at 1.2% DMB
Source text: These diets have been composed of corn silage for roughage, flaked corn, and a substantial amount of wet corn milling byproducts.
The feed additives used included Monensin sodium (R) and Tylosin phosphate (T).
Data collected included daily gain, consumption, feed efficiency, rumen pH and observations on bloat and metabolic problems. Carcass data including liver abscess occurrence were collected.
Rumen samples were collected from cattle prior to the morning feeding using a Geishauser Probe.

[1] = test system: Char-Hereford cross heifer calves; type: in vivo
Experimental: The experimental animals were Char-Hereford cross unweaned heifer calves originating from Western Ontario and Eastern Manitoba Canada. On arrival they were vaccinated for IBR, PI3 and BVD. They were treated for internal and external parasites with Ivomec. They were implanted with Synovex C.
Approximately 350 head of calves were purchased weighing approximately 500 lbs. From this group 160 head and were selected for the experiment and randomly allotted into four experimental groups. Each treatment contains 5 reps of 8 head each. They were grown on a medium energy level diet limit fed calculated to obtain a daily gain of approximately 2.6 lbs. Length of feeding period will be approximately 100 days. After arrival and prior to the trial allotment they were each-backgrounded for approximately 3-4 weeks. They averaged approximately 550 lbs at the beginning of the trial.
Data collected included: • 1. Gain, consumption and conversions at 28 day intervals and overall. • 2. Observations on bloat and metabolic problems. • 3. Cost of gain by treatment including feed and feed additive cost, with no yardage or “mark up”.
Originally the trial was scheduled for 100 days, but because of unusually good performance, it was decided to terminate at 91 days.

[2] = test system: Angus cross steer and heifer calves; details: bovine, in vivo
Experimental: The experimental animals were Angus cross steer and heifer calves from Manitoba, Canada. They were trucked to the experimental feedlot located near Kitchener, Ontario, Canada. On arrival of the animal received IBR, PIP and BVD vaccine plus Covexina. They were also treated for internal and external parasites with Ivomec pour on. Prior to the beginning of this trial the calves were preconditioned for approximately 45 days and adapted to a high concentrate diet.
Following the preconditioning period, unhealthy calves were removed and the remaining calves were divided into steer and heifer groups. These groups were then divided at random into 20 pens of steers and 20 pens of heifers. Each of the pens contained 8 head of calves. Five pens of steers and 5 pens of heifers were then allotted to each of 4 experimental treatments.
Initial, 28 day interim weights and final weights were based on gross weights less a 4% pencil shrink. Experimental data collected included average daily gain, feed consumption and feed conversions. In addition, death loss and bloat problems were observed. At the termination of the trial, Rumen pH was measured on 4 animals from each treatment using a Geishauser Probe. The pH measurements were taken at 2, 4 and 6 hours after feeding.
A calcium clinoptilolite zeolite (Biolite®) was added in place of an equivalent amount of corn. […]

[3] = summarized: NC vs RT and BL vs no BL treatments pooled

With Monensin sodium [R] the “rumen pH” value (feedlot cattle) was “R 6.43b means with different super script letter differ, P < .OS O 6.46b”.
With Nova-Cell + Biolite [NC + BL] the “Bloat Treated” value ([1]; bovine, in vivo) was 0.
With Nova-Cell [NC] the “Bloat Died” value ([1]; 91 days) was 0, the “Bloat Treated” value ([1]; 91 days) was 0 and the Consumption ([1]; 91 days) was 17.0αb. The Conversions ([1]; 91 days) was 5.97b, the ADG ([1]; 91 days, limit fed grow ration, BL at 1.2% DMB) was 2.85b and the ADG [1, 3] was 3.03α. The Consumption [1, 3] was 17.11α and the Conversions [1, 3] was 5.70.
For “calcium clinoptilolite zeolite [Biolite ®]”, the “Metabolics Treated” value [2] was 4.

Reference: US20090136616A1, “METHODS OF FEEDING RUMINANTS ON WINTER FORAGE SUPPLEMENTING WITH ZEOLITE” (priority 2007, published 2009)
